Laboratory results as given in patent US20040068005A1, “Pharmaceutical combinations” (priority 2000, published 2004).

How the values were obtained:
[1] = tested on: normal conscious rabbits; assay: Hyperinsulinaemic euglycaemic glucose clamping (insulin sensitivity), normal rabbits; type: in vivo, New Zealand white rabbits
Experimental: (§1) The experiments are carried out with adult, male New Zealand white rabbits, weighing 3.0-3.5 kg, housed as described in Am. J. Physiol 1994, Heart Circ. Physiol, 35: H2033-H2041 and J. Moll Cell.. Cardiol. 1997, 29: 1977-1983.
(§2) To estimate insulin sensitivity and/or insulin resistance, hyperinsulinaemic (100 eU/ml) euglycaemic (5.5 mM/l) glucose clamping was used. The glucose clamping values (M) were established as values of glucose infusion rates expressed in mg/kg/min to maintain blood glucose level at 5.5 mM/l.

[2] = tested on: hypercholesterolaemic, insulin resistant conscious rabbits; assay: Hyperinsulinaemic euglycaemic glucose clamping (insulin sensitivity), hypercholesterolaemic rabbits; type: in vivo, New Zealand white rabbits; conditions: for Glucose infusion rate / M values of hyperinsulinaemic and euglycaemic glucose clamping: hypercholesterolaemic; for Glucose infusion rate: insulin resistant rabbit; for Insulin sensitivity: percent of means, control = 100
Experimental: (§3) The experiments are carried out with adult, male New Zealand white rabbits, weighing 3.0-3.5 kg, housed as described in Am. […] Physiol, 35: H2033-H2041 and J. Moll Cell.. Cardiol.
as §2

[3] = tested on: normal conscious rabbits; assay: Ventricular pacing-induced myocardial ischaemia (ST-segment elevation), normal rabbits; type: in vivo, New Zealand white rabbits
Experimental: as §3
(§4) The induction of global myocardial ischaemia was based on a method described as above.

[4] = tested on: human; conditions: controlled release ISMN preparations; cited from earlier work
[5] = tested on: healthy volunteers; assay: Oral glucose tolerance test (OGTT) with nitroglycerin patch, plasma glucose and immunoreactive insulin; type: in vivo, human; conditions: for Insulin / Glucose: OGTT
Experimental: Twenty persons were studied.
Between 2 oral glucose, tolerance tests (OGTT) the volunteers were randomized for receiving either active NITRODERM TTS 10 (releasing approx. 0.4 mg hours^−1 nitroglycerin) or placebo patches. The study was carried out and evaluated in a double blind fashion. The patients received the glucose solution at 8 a.m. Venous blood samples were taken during fasting (immediately before glucose) and at 15, 30, 60, 90, 120 and 180 minutes after the glucose load. The samples evaluated for plasma glucose level (mmol 1^−1) and immunoreactive insulin responses (eU ml^−1). Plasma glucose was determined by means of an autoanalyzer, using the glucoseoxidease method. Immunoreactive insulin levels were assessed by radioimmunoassay method using antihuman antibody. During the study, two ECG leads (II and V1 or V6) and arterial blood pressure were continuously monitored.

[6] = tested on: streptozotocin diabetic rabbits; assay: Femoral nerve conduction velocity, streptozotocin diabetes; type: in vivo, New Zealand white rabbits
Experimental: as §1
These series of experiments were carried out to verify/exclude sensory neuropathy. Left saphenous nerve conduction velocity was determined as described in Eur J. Pharmacol 1999, 386:83-88.
Streptozotocin (40 mg/kg i.v.) produced a decrease in nerve conduction velocity in femoral “A” and “C” fibres, respectively, as determined 8 weeks after streptozotocin injection. […] The combination of any of these drugs with nitroglycerin yielded an improvement of conduction velocity in streptozotocin-diabetic aminals similar to that seen with nitroglycerin alone.

[7] = tested on: hypercholesterolaemic, insulin resistant rabbits; assay: Femoral nerve conduction velocity, hyperlipidaemia-induced insulin resistance; type: in vivo, New Zealand white rabbits
Experimental: as §3
These series of experiments were carried out to verify/exclude sensory neuropathy.

[8] = tested on: hypercholesterolaemic, insulin resistant conscious rabbits; assay: Ventricular pacing-induced myocardial ischaemia (ST-segment elevation), hypercholesterolaemic rabbits; type: in vivo, New Zealand white rabbits; conditions: hypercholesterolaemic
Experimental: as §3, §4

[9] = tested on: isolated pancreatic islets; conditions: Am. J. Physiol 1996;271;C1098-C1102; cited from earlier work
[10] = normal rabbits, 2 mg/kg per os ISMN
[11] = normal rabbits, 2 mg/kg per os controlled release ISMN
[12] = normal rabbits, 4 mg/kg per os controlled release ISMN
[13] = sampling 0 (control), active patch approx. 0.4 mg/hour nitroglycerin, n=20
[14] = Table I, sampling 0 (control), active patch

SMILES: O=[N+]([O-])O[C@@H]1CO[C@H]2[C@@H]1OC[C@@H]2O [ISMN, isosorbide-5-mononitrate]
- Glucose infusion rate ([1]; normal rabbit, metformin 100 mg/kg p.os, ISMN controlled release 5 mg/kg p.os): 16.30 ± 0.8200 mg/kg/min
- metabolic (insulin sensitising) and anti-ischaemic effect ([1]; normal rabbits, 1 mg/kg per os ISMN): without any effect
- Glucose infusion rate ([1]; normal rabbits, 1 mg/kg per os controlled release ISMN, control 13.6): 14.2 ± 0.8 mg/kg/min
- metabolic (insulin sensitising) effect [1, 10]: significant metabolic effect
- Glucose infusion rate [1, 11]: 16.0 ± 0.9 mg/kg/min
- metabolic and anti-ischaemic effects ([1]; normal rabbits, 4 mg/kg and higher doses per os ISMN): metabolic and anti-ischaemic effects
- Glucose infusion rate [1, 12]: 16.3 ± 1.0 mg/kg/min
- M values of hyperinsulinaemic and euglycaemic glucose clamping ([1]; normal rabbits, drug alone vs control, isosorbide-5-mononitrate 1 mg/kg/day (Olicard 40), metformin 100 mg/kg/day p.os over 3 days): increased
- threshold dose of insulin sensitising effect as share of the threshold dose of the anti-ischaemic effect ([1]; normal rabbits, per os ISMN): 50%
- threshold dose of the insulin sensitising effect ([1]; normal rabbits, per os extended-release ISMN): 2 mg/kg
- Glucose infusion rate ([2]; metformin 100 mg/kg p.os, ISMN controlled release 5 mg/kg p.os): 14.00 ± 0.8900 mg/kg/min
- M values of hyperinsulinaemic and euglycaemic glucose clamping ([2]; insulin resistant rabbits vs control, ISMN 5 mg/kg/day (Olicard 40), metformin 100 mg/kg/day p.os over 3 days): significantly increased
- Insulin sensitivity ([2]; ISMN controlled release 5 mg/kg p.os, metformin 100 mg/kg p.os): 144.4%
- ST-segment elevation ([3]; normal rabbits, 1 mg/kg per os controlled release ISMN, control 2.0): 2.0 ± 0.09 mV
- anti-ischaemic effect (changes in ST-segment elevation) [3, 10]: statistically insignificant anti-ischaemic effect
- ST-segment elevation [3, 11]: 1.9 ± 0.16 mV
- ST-segment elevation [3, 12]: 1.4 ± 0.12 mV
- threshold anti-anginal dose [4]: 30 mg/day

SMILES: O=[N+]([O-])OCC(CO[N+](=O)[O-])O[N+](=O)[O-] [Nitroglycerin, nitroglycerin]
- Insulin ([5]; 15 min, active patch): 38.9 ± 4.4^#+ μU ml^−1
- Glucose ([5]; 15 min after glucose load, active patch): 7.3 ± 1.1^+ mmol l^−1
- Glucose ([5]; 30 min, active patch): 6.1 ± 0.6^+ mmol l^−1
- Insulin ([5]; 30 min, active patch): 36.3 ± 5.0^#+ μU ml^−1
- Glucose ([5]; 60 min, active patch): 5.5 ± 0.4 mmol/L
- Insulin ([5]; 60 min, active patch): 25.6 ± 3.3^#+ μU ml^−1
- Glucose ([5]; 90 min, active patch): 4.7 ± 0.7 mmol/L
- Insulin ([5]; 90 min, active patch): 24.1 ± 2.9^#+ μU ml^−1
- Glucose ([5]; 120 min, active patch): 4.2 ± 0.3 mmol/L
- Insulin ([5]; 120 min, active patch): 15.2 ± 2.4^+ μU ml^−1
- Glucose ([5]; 180 min, active patch): 4.5 ± 0.5 mmol/L
- Insulin ([5]; 180 min, active patch): 14.4 ± 2.6^ μU ml^−1
- Glucose [5, 13]: 4.2 ± 0.3 mmol/L
- Insulin [5, 13]: 8.2 ± 0.9^ μU ml^−1
- Glucose ([5]; Table I, 15 min, active patch): 7.3 ± 1.1 mmol⁻¹
- Insulin ([5]; Table I, 15 min, active patch): 38.9 ± 4.4 μU mL^−1
- Glucose ([5]; Table I, 30 min, active patch): 6.1 ± 0.6 mmol⁻¹
- Insulin ([5]; Table I, 30 min, active patch): 36.3 ± 5.0 μU mL^−1
- Glucose ([5]; Table I, 60 min, active patch): 5.5 ± 0.4 mmol⁻¹
- Insulin ([5]; Table I, 60 min, active patch): 25.6 ± 3.3 μU mL^−1
- Glucose ([5]; Table I, 90 min, active patch): 4.7 ± 0.7 mmol⁻¹
- Insulin ([5]; Table I, 90 min, active patch): 24.1 ± 2.9 μU mL^−1
- Glucose ([5]; Table I, 120 min, active patch): 4.2 ± 0.3 mmol⁻¹
- Insulin ([5]; Table I, 120 min, active patch): 15.2 ± 2.4 μU mL^−1
- Glucose ([5]; Table I, 180 min, active patch): 4.5 ± 0.5 mmol⁻¹
- Insulin ([5]; Table I, 180 min, active patch): 14.4 ± 2.6 μU mL^−1
- Glucose [5, 14]: 4.2 ± 0.3 mmol⁻¹
- Insulin [5, 14]: 8.2 ± 0.9 μU mL^−1
- plasma glucose levels ([5]; active vs placebo patch group): no differences
- increase in insulin in response to oral glucose load ([5]; compared to placebo patch group): significantly decreased
- Glucose infusion rate ([1]; normal rabbit, with active patch (nitroglycerin 0.07 mg/kg/h), alone (Control) or together with the drug, troglitazon 70 mg/kg p.os, metformin 5 mg/kg i.v., glibenclamide 1 mg/kg i.v., idazoxan 2 mg/kg i.v.): 16.857 mg/kg/min
- Glucose infusion rate ([2]; with active patch (nitroglycerin 0.07 mg/kg/h), alone (Control) or together with the drug, same doses): 12.667 mg/kg/min
- M values of hyperinsulinaemic and euglycaemic glucose clamping ([2]; insulin resistant rabbits, nitroglycerin (0, 0.7 mg/kg/h) alone): increased
- Insulin sensitivity ([2]; nitroglycerin patch 0.07 mg/kg/h, metformin 5 mg/kg i.v., troglitazon 70 mg/kg p.os): 140.7%
- Nerve conduction velocity ([6]; femoral “C” fibers, streptozotocin diabetic rabbit, with active patch (nitroglycerin 0.07 mg/kg/h), alone (Control) or with the drug): 3.6 ± 0.2 dm/s
- nerve conduction in “C” fibres ([6]; streptozotocin-diabetes model, drug alone, nitroglycerin 12-h patch on vs 12-h patch off over three days): significantly improved
- “A” fibre conduction ([6]; streptozotocin-diabetes model, nitroglycerin patch, data not shown): marginal amelioration
- decrease in nerve conduction velocity in “C” fibres after atherogenic diet ([7]; eight-week atherogenic diet, drug alone): attenuated
- Nerve conduction velocity ([7]; femoral “C” fibers, hypercholesterolaemic, insulin resistant rabbit, with active patch (nitroglycerin 0.07 mg/kg/h), alone (Control) or with troglitazon 70 mg/kg p.os): 4.3 ± 0.4 dm/s
- intracavitary ST-segment elevation ([3]; normal conscious rabbits, drug alone): significantly decreased
- ST-segment elevation ([3]; normal rabbit, with active patch (nitroglycerin 0.07 mg/kg/h), alone (Control) or with the drug): 0.7 ± 0.10 mV
- ST-segment elevation ([8]; insulin resistant rabbit, with active patch (nitroglycerin 0.07 mg/kg/h), alone (Control) or with the drug): 1.4 ± 0.10 mV
- intracavitary ST-segment elevation / ischaemic changes produced by VOP ([8]; insulin resistant rabbits, drug alone): significantly decreased

SMILES: N=c1c[n+](N2CCOCC2)[n-]o1 [SIN-1, 3-morpholinosydnonimine]
- insulin release [9]: inhibit insulin release
